Each structure is given as a SMILES string.

Test in all cases: Caliper, Mobility shift assay off-chip
The target in assay [1] is TXK (human) (UniProt P42681).
Assay [2] concerns BLK (mouse). To be noted: accession and sequence are those of the human protein.
Assay [3] has as its target GRK7 (human) (UniProt Q8WTQ7).
Assay [4] deals with MAP2K4 (mouse). Particulars: compound 10.0 µM; accession and sequence are those of the human protein.
In assay [5] the test system is RET (human), P07949 [V804L].
Chain of RET (human), P07949 [V804L] (P07949 whole entry V804L, looked up): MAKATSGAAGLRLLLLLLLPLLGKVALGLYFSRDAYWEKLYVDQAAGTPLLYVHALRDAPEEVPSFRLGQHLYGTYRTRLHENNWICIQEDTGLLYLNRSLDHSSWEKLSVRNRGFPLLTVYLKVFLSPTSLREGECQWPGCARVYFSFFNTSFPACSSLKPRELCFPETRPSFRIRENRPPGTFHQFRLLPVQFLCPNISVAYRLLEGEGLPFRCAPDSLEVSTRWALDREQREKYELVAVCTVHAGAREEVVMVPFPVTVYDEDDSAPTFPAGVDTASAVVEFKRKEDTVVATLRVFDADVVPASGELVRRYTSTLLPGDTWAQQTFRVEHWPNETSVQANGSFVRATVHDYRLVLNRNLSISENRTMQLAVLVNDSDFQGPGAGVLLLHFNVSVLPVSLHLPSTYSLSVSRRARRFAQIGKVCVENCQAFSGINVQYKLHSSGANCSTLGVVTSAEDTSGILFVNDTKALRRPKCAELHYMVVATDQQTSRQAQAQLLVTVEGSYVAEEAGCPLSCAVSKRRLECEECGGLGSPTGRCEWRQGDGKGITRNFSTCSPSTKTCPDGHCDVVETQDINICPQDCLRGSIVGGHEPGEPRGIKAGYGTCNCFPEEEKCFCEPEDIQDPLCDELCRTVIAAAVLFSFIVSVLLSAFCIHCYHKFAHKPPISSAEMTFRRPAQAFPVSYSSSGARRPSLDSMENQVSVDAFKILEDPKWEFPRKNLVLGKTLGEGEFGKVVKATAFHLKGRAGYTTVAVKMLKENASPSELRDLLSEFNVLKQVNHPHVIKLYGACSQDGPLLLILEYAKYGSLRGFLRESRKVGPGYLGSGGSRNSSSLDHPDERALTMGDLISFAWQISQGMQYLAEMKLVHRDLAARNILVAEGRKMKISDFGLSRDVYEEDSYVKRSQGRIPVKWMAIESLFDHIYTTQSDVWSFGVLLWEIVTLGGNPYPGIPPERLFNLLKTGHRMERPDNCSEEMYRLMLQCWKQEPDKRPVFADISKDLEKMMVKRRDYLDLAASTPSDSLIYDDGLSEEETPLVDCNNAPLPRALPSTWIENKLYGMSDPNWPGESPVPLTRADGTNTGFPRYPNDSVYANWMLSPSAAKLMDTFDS
Assay [6] concerns ABL1 (human), P00519 [Y253F].
The target in assay [7] is TAOK1 (human) (UniProt Q7L7X3).
Chain of TAOK1 (human) (Q7L7X3 whole entry, looked up): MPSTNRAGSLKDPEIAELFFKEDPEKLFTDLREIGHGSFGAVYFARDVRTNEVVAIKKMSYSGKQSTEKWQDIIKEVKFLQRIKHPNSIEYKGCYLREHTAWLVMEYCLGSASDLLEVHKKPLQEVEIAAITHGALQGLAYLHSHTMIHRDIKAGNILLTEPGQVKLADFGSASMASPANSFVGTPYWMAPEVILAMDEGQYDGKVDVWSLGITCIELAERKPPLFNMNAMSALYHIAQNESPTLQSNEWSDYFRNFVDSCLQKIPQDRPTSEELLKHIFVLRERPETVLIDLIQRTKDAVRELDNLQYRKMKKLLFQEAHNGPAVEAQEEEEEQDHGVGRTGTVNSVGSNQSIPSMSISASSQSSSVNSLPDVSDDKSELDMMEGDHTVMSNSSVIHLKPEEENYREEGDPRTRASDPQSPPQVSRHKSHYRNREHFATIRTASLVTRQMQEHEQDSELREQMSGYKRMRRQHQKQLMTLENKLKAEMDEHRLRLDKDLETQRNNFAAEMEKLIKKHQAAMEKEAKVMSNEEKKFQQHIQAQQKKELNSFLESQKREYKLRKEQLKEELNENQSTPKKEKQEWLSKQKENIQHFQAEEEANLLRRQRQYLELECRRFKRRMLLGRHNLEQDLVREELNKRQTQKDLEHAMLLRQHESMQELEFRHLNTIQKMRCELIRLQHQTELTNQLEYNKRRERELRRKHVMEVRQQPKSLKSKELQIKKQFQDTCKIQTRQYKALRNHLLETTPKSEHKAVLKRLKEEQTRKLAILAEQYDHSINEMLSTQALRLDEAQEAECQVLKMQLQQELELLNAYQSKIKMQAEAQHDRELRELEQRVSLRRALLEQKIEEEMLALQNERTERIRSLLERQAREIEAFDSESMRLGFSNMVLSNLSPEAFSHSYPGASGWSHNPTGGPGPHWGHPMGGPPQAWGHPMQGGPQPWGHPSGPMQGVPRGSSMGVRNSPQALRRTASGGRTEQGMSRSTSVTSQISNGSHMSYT
The target of assay [8] is TEC (human) (UniProt P42680). To be noted: compound 10.0 µM.
Assay [9] concerns the target CLK2 (human) (UniProt P49760).
The target in assay [10] is CSNK1A1 (human) (UniProt P48729). Particulars: compound 1.0 µM.
Assay [11] has as its target MYLK (human) (UniProt Q15746). Particulars: compound 1.0 µM.
Assay [12] deals with PIK3CB (human) (UniProt P42338). Particulars: compound 1.0 µM.
Assay [13] has as its system ABL1 (mouse). To be noted: compound 1.0 µM; accession and sequence are those of the human protein.
In assay [14] the target is PIK3CD (human) (UniProt O00329). Particulars: compound 1.0 µM.
Assay [15] concerns ABL2 (mouse). To be noted: compound 1.0 µM; accession and sequence are those of the human protein.
For assay [16], the target named is MAPK3 (human) (UniProt P27361). To be noted: compound 1.0 µM.
Assay [17] concerns the target CSNK1A1 (yeast) (UniProt P48729). To be noted: compound 1.0 µM; accession and sequence are those of the human protein.
In assay [18] the target is PIK3CG (human) (UniProt P48736). Particulars: compound 1.0 µM.
Assay [19] relates to LYN (mouse). To be noted: compound 1.0 µM; accession and sequence are those of the human protein.
In assay [20] the target is CDC7 (human) (UniProt O00311). To be noted: compound 10.0 µM.
Assay [21] has as its system DYRK1A (rat). To be noted: compound 10.0 µM; accession and sequence are those of the human protein.
The subject of assay [22] is CSNK1A1 (rat). Particulars: compound 10.0 µM; accession and sequence are those of the human protein.
For assay [23], the target named is CSNK2A1 (human) (UniProt P68400). Particulars: compound 10.0 µM.
Assay [24] addresses CDK4 (human) (UniProt P11802). To be noted: compound 10.0 µM.
Assay [25] addresses PBK (human) (UniProt Q96KB5). Particulars: compound 10.0 µM.
Assay [26] addresses PRKAA1 (human) (UniProt Q13131). To be noted: compound 10.0 µM.
Assay [27] deals with PHKG1 (rabbit). Particulars: compound 10.0 µM; accession and sequence are those of the human protein.
For assay [28], the target named is MARK4 (human) (UniProt Q96L34). Particulars: compound 10.0 µM.
Assay [29] has as its target BRAF (human) (UniProt P15056). To be noted: compound 10.0 µM.
Assay [30] concerns the target MAP3K8 (human) (UniProt P41279). Particulars: compound 10.0 µM.
Assay [31] concerns the target ERBB2 (human) (UniProt P04626). Particulars: compound 10.0 µM.
For assay [32], the target named is NTRK3 (human) (UniProt Q16288). Particulars: compound 10.0 µM.
The target of assay [33] is PAK1 (human) (UniProt Q13153). Particulars: compound 10.0 µM.
Assay [34] has as its system RPS6KB1 (human), P23443 [T412E]. Particulars: compound 10.0 µM.
The target in assay [35] is SGK1 (human) (UniProt O00141). Particulars: compound 10.0 µM.
In assay [36] the target is MAP3K14 (human) (UniProt Q99558). To be noted: compound 10.0 µM.
Assay [37] concerns MAP2K1 (rabbit). Particulars: compound 10.0 µM; accession and sequence are those of the human protein.
Assay [38] has as its target PRKDC (human) (UniProt P78527). To be noted: compound 10.0 µM.
The target in assay [39] is AURKC (human) (UniProt Q9UQB9). Particulars: compound 10.0 µM.

Chain of CLK2 (human) (P49760 whole entry, looked up): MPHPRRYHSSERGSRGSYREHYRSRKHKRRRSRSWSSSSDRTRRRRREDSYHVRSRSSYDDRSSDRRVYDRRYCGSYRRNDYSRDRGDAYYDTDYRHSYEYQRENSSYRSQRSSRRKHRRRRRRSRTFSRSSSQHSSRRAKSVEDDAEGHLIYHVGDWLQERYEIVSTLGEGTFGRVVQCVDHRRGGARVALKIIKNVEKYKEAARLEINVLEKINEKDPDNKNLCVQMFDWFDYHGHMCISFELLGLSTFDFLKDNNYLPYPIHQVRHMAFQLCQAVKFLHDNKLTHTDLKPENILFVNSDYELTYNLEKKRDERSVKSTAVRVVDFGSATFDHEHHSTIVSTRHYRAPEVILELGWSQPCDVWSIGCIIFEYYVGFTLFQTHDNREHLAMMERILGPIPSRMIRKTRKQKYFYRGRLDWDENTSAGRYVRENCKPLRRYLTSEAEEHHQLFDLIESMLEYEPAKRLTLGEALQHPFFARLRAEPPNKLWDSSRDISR
Chain of GRK7 (human) (Q8WTQ7 whole entry, looked up): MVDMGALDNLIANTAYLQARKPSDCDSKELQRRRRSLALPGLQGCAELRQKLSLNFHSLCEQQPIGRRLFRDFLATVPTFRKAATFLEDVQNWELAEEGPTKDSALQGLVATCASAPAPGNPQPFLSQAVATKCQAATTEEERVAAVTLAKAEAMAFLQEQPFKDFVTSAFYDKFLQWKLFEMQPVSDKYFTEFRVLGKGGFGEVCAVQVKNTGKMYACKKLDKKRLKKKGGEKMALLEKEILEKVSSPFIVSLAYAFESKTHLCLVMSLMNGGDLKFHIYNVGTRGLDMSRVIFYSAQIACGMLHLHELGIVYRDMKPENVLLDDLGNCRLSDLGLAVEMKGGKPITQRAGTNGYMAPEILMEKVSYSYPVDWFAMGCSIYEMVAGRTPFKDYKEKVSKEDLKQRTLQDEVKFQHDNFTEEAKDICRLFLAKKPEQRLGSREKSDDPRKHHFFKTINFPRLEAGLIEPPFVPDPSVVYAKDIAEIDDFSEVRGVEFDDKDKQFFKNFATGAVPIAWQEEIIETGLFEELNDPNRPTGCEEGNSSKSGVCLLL
Chain of TXK (human) (P42681 whole entry, looked up): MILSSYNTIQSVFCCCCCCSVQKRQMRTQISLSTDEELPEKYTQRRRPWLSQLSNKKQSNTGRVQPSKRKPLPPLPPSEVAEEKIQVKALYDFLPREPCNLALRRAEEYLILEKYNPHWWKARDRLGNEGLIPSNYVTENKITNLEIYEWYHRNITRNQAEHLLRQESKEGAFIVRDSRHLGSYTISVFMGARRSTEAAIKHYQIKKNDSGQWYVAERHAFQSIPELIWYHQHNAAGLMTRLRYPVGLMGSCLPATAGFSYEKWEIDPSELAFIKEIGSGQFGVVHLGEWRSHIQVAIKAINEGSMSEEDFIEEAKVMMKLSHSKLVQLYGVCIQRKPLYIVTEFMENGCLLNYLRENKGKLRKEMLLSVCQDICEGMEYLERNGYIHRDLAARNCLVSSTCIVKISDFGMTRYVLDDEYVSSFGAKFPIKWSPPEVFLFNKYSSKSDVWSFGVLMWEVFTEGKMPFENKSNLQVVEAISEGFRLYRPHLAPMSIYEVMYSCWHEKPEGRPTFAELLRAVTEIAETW
Chain of BRAF (human) (P15056 whole entry, looked up): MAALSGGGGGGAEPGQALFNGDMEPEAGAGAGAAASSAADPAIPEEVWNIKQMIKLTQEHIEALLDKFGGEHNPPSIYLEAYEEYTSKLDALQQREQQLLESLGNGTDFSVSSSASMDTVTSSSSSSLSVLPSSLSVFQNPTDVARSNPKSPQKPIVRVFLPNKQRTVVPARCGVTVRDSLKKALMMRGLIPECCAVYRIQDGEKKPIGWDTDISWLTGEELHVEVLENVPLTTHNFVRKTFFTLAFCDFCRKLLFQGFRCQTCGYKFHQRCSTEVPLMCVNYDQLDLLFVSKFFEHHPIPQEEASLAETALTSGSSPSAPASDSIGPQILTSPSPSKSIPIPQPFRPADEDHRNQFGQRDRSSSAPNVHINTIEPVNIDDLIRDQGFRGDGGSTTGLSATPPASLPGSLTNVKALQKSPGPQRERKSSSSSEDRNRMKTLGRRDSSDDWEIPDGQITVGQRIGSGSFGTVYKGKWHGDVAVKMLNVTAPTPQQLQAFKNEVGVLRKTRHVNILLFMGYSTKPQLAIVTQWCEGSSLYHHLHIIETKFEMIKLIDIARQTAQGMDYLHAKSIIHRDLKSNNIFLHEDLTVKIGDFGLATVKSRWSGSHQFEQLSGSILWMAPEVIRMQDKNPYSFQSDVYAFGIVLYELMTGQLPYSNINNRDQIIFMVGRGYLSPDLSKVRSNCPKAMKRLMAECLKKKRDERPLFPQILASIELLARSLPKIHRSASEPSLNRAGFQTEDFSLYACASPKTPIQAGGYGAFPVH
Chain of MAP3K8 (human) (P41279 whole entry, looked up): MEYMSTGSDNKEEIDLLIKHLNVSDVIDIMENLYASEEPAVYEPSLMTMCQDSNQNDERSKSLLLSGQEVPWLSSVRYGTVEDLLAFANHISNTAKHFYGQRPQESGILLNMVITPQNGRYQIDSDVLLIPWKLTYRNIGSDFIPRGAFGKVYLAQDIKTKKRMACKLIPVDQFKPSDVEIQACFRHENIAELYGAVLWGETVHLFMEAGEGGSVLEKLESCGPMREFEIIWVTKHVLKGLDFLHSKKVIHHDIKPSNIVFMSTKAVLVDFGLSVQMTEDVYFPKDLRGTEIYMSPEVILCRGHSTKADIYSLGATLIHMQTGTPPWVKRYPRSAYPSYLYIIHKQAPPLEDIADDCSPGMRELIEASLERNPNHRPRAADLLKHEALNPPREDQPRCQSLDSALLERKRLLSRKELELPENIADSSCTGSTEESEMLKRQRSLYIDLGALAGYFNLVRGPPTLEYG

For orientation: residual activity means the signal under treatment as a percentage of the control signal. Consider `O=C(N[C@@H](COc1ccc2[nH]c(=O)[nH]c2c1)c1ccccc1)c1cccn(Cc2ccc(F)c(F)c2)c1=O`, for which the residual activity came out at 138% in assay [1] (compound 10.0 µM); 94% in assay [2] (compound 10.0 µM); 108% in assay [3] (compound 10.0 µM); 112% in [4]; 112% in assay [5] (compound 10.0 µM); 110% in assay [6] (compound 10.0 µM). Besides, the values for the residual activity in [7] (compound 10.0 µM), in assay [8] and in assay [9] (compound 10.0 µM) were 96%, 91% and 100%, respectively.
Regarding `Cc1n[nH]c2c1c(=O)n(CCCN)c1ccc(Cl)cc21`, the residual activity in [2] (compound 1.0 µM) was found to be 92%; in assay [10] it was 111%; in assay [11] it was 68%; in assay [12] it was 100%; in assay [13] it was 98%; in assay [14], 95%. Besides, the residual activity in [15] was determined as 110%; in [16], 89%; in assay [17] it was 69%; in assay [18], 116%; in assay [19], 69%.
Consider `C[C@@H](Nc1nc2c(C#CC3CC3)c[nH]c(=O)c2c2cc(-c3cn[nH]c3)ccc12)C(C)(C)C`, for which the residual activity in assay [1] (compound 1.0 µM) is 84%; in [3] (compound 1.0 µM) it was 90%; in [5] (compound 1.0 µM) it was 2%; in assay [6] (compound 1.0 µM), 60%; in [7] (compound 1.0 µM), 95%; in [9] (compound 1.0 µM), 67%.
Turning to `CC(C)(C)c1nc2c3ccc(F)cc3c3c(=O)[nH]ccc3c2[nH]1`, the residual activity amounted to 70% in assay [20]; 64% in [21]; 59% in [22]; 71% in assay [23]; 21% in [24]; 10% in assay [25]. Further, the residual activity in assay [26] stood at 5%; in assay [27] it was 6%; in [28] it was 25%; in assay [29], 114%; in [30] it was 87%; in assay [31] it was 130%. Also, the residual activity in [32] came out at 2%; in assay [33], 73%; in assay [34], 11%; in assay [35], 3%; in [36], 92%; in assay [37], 30%. Further, the values for the residual activity in assay [38] and in [39] were 97% and 4%, respectively.

Source of the values: the kinase profiling compilation of Christmann-Franck et al. (2016).
